Biological target: T1, LYN B (Homo sapiens, UniProt P07948)
T1 construct: purchased Thermo Fisher Scientific (Life Technologies) SelectScreen
Experiment: SelectScreen Z'LYTE
Type: biochemical
Experimental: The in vitro kinase selectivity of NU5455 was determined using the SelectScreen Broad Assay Panel (Thermo Fisher Scientific) involving activity and binding assays (Supplemental Table 1). […] Class IA PI3Ks were measured using the p85α subunit.
Kinase [ATP] % Assay Kinase [ATP] % Assay Kinase [ATP] % Assay Kinase [ATP] % Assay […]
CHEK1 (CHK1) Km app 9.3 Z LYN B Km app 3.0 Z TGFBR2 n/a -0.1 L PDGFRA D842V Km app -5.0 Z […]
SGK (SGK1) Km app 8.5 Z MAP4K2 (GCK) Km app 2.7 Z TLK2 n/a -0.3 L STK38 (NDR) n/a -5.9 L
MERTK (cMER) Km app 8.3 Z CDK2/cyclin A Km app 2.7 Z TGFBR1 (ALK5) n/a -0.4 L MATK (HYL) Km app -6.3 Z
FYN Km app 8.3 Z EPHA1 Km app 2.7 Z CLK3 Km app -0.5 Z ABL1 E255K Km app -6.6 Z
TEC n/a 8.1 L CDK2/cyclin E1 n/a 2.7 L MAP3K14 (NIK) n/a -0.5 L STK17A (DRAK1) n/a -6.6 L
KIT V654A n/a 8.1 L TESK2 n/a 2.7 L AKT3 (PKB gamma) Km app -0.5 Z JAK2 JH1 JH2 Km app -6.7 Z
ROS1 Km app 8.0 Z SPHK1 Km app 2.7 A MAP3K9 (MLK1) Km app -0.5 Z PRKACB (PRKAC beta) n/a -6.8 L
FGFR3 K650E Km app 7.9 Z AMPK A2/B1/G1 Km app 2.6 Z IKBKB (IKK beta) Km app -0.6 Z PDGFRA (PDGFR alpha) Km app -6.8 Z
RAF1 (cRAF) Y340D Y341D 100 7.9 Z DYRK3 Km app 2.6 Z CAMK2A (CaMKII alpha) Km app -0.6 Z NEK9 Km app -7.2 Z
PI4KA (PI4K alpha) 10 7.8 A CSNK1D (CK1 delta) Km app 2.6 Z PRKCB1 (PKC beta I) Km app -0.7 Z PDK1 Km app -7.3 Z
HIPK2 Km app 7.8 Z ACVR2A n/a 2.5 L TTK n/a -0.7 L RPS6KB1 (p70S6K) Km app -7.8 Z […]

T1 sequence (P07948 1-491 isoform P07948-2): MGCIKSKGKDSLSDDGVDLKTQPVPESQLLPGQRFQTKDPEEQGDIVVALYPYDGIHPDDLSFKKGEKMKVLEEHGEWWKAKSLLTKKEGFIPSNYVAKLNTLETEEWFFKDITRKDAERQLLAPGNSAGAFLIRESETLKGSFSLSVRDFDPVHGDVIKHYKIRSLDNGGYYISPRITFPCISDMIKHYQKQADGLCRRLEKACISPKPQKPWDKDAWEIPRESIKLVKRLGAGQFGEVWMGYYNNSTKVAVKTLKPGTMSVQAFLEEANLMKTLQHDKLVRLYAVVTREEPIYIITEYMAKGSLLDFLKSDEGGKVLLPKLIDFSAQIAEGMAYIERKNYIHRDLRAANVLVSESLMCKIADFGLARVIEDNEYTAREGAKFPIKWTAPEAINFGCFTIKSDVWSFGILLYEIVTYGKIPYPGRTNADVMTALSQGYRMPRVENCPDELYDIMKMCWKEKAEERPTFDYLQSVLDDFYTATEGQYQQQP

Structure (SMILES): CN(C(=O)CN1CCOCC1)c1ccc2sc3c(-c4cccc5c(=O)cc(N6CC7CCC(C6)O7)oc45)cccc3c2c1 [NU5455]
- inhibition at 1 µM: 3%

— PMC6934184, “Selective DNA-PKcs inhibition extends the therapeutic index of localized radiotherapy and chemotherapy” (The Journal of Clinical Investigation, 2019)
